The target of this experiment is T1, γ-secretase (presenilin-1, PS1) (Mus musculus, UniProt P49769).
T1 construct: gene Psen1; endogenous γ-secretase complex in N2a (NAG) cells, APPGV16 as substrate; with Nicastrin and the other subunits of the heterotetrameric γ-secretase complex
The experiment can be described thus: Gal4-luciferase reporter of γ-secretase cleavage of APPGV16 in stable N2a cells, […] h; CTF accumulation by western blot. The class given is cell-based. For orientation: A reporter such as luciferase makes a cellular process visible.

Turning to `C[C@H](NC(=O)Cc1cc(F)cc(F)c1)C(=O)N[C@H](C(=O)OC(C)(C)C)c1ccccc1` [DAPT], the IC50 – broadly, the concentration that gives 50% inhibition – is ~1000 nM.

For the origin of these results see article PMC2817752, “Phenylbutyric Acid Rescues Endoplasmic Reticulum Stress-Induced Suppression of APP Proteolysis and Prevents Apoptosis in Neuronal Cells” (PLoS ONE, 2010).
